The values below come from patent US20230073777A1, “CYCLIC-AMP RESPONSE ELEMENT BINDING PROTEIN (CBP) AND/OR ADENOVIRAL E1A BINDING PROTEIN OF 300 KDA (P300) DEGRADATION COMPOUNDS AND METHODS OF USE” (CULLGEN (SHANGHAI), INC., priority 2019, published 2023).

The test system of one assay is LNCaP cells. Kind of assay: LNCaP cell viability assay (CellTiter-Glo). It is filed as cell-based. The settings on record: for IC50: Homo sapiens, 72 h, LNCaP prostate cancer cell viability inhibition, 3 days. Put shortly: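 LNCaP cells, 5000/well, exposed to compounds in 12-point 3-fold serial dilution (top 10 μM) for 3 days. Viability by CellTiter-Glo luminescence, normalized to untreated cells; IC50 by least-squares nonlinear regression.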
(In general: In ATP-based viability assays light output follows the ATP content of the culture.)

The target in a further assay is P300 (Homo sapiens, UniProt Q09472). Kind of assay: Immunoblotting of P300 protein levels in LNCaP or 22RV1 cells. It is filed as cell-based. On the set-up: LNCaP or 22RV1 cells that express CBP/P300 proteins were treated with GNE-781 or the bivalent compounds; endogenous in cells; host or cells: LNCaP (clone FGC) or 22RV1 cells. The settings on record: read-out: Degradation (10 nM). Put shortly:
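LNCaP or 22RV1 cells treated with compounds for indicated hours, DMSO as negative control. RIPA lysates resolved by SDS-PAGE and immunoblotted for P300 or CBP, tubulin or vinculin as loading control; chemiluminescent bands quantitated.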
A general note: A western blot detects proteins with antibodies after separation by electrophoresis.

Where [1] appears, read: percentage of inhibition of p300 at 10 nM (Table 3).
Setting [2] is: percentage of inhibition of p300 at 10 nM (Table 2).

Like-named read-outs stand apart in the source and are kept apart here.

P300, sequence (Q09472 whole entry): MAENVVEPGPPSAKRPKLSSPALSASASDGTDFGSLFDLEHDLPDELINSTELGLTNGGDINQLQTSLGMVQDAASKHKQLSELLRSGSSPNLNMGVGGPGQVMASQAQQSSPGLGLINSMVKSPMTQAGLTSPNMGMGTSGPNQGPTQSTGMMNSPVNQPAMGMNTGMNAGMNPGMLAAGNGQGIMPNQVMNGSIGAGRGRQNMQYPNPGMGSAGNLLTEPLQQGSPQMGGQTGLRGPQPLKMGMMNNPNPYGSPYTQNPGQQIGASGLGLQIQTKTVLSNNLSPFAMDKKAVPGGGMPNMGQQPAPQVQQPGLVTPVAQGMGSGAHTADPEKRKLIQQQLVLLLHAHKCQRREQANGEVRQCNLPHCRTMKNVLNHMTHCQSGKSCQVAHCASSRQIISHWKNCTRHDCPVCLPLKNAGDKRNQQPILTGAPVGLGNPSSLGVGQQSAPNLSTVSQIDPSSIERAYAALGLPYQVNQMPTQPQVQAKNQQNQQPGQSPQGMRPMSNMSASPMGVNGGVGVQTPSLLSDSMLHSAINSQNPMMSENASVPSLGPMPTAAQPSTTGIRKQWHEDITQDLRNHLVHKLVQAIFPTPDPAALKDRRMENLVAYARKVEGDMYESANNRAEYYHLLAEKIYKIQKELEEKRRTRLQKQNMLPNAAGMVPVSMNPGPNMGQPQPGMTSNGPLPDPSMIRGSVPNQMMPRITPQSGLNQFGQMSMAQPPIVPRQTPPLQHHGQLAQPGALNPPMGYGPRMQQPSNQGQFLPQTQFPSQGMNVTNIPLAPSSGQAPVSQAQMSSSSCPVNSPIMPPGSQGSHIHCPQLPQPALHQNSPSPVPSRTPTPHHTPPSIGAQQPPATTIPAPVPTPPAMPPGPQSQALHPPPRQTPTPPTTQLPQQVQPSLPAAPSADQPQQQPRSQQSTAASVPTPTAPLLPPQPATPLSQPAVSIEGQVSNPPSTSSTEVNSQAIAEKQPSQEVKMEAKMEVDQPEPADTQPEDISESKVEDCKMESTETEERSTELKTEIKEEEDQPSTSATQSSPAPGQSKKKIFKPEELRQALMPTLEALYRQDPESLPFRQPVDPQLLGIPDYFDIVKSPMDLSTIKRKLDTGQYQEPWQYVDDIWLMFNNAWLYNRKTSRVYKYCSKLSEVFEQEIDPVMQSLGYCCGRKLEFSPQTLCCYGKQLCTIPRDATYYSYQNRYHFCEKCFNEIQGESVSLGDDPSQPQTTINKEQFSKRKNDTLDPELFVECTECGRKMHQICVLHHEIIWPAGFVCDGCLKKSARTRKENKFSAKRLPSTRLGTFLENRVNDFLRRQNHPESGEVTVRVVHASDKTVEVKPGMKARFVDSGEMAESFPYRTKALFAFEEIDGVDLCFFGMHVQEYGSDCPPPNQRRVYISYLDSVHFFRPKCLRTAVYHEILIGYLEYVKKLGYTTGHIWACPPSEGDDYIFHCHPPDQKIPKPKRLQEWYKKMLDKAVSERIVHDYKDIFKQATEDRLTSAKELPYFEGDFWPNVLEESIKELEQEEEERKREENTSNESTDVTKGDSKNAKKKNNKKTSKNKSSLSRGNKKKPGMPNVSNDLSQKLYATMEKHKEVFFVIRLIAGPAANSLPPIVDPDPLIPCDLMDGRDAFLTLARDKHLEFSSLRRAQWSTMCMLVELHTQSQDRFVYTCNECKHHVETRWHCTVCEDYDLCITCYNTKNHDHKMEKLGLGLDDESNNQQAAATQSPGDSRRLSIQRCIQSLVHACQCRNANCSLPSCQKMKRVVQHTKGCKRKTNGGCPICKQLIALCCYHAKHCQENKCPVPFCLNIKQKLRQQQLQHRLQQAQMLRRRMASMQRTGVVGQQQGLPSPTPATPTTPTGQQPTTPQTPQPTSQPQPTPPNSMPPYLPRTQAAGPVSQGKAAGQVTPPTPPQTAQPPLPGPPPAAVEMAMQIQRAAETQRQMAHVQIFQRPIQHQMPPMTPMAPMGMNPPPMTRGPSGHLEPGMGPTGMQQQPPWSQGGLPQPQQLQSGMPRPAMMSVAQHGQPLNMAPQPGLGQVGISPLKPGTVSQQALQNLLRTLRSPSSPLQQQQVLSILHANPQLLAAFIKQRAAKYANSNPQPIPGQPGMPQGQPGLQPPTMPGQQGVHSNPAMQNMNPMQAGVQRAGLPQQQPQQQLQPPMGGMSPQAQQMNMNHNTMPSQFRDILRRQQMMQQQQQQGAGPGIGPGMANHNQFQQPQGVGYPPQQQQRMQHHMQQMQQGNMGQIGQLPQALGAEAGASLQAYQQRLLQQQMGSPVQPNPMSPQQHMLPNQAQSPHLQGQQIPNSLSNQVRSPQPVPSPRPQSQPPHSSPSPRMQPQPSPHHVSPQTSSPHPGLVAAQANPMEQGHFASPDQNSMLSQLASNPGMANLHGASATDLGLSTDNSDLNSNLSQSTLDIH

By IC50 is commonly meant the concentration that inhibits the measured activity by half. Low readings indicate greater potency in that assay, high ones weaker potency in that assay. In the assay with LNCaP cells (CellTiter-Glo (Table 3)), `CNC(=O)N1CCc2c(c(N3CCCc4cc(-c5cnn(C)c5)c(C(F)F)cc43)nn2C2CCN(C(=O)CCCCCCc3cccc4c3C(=O)N(C3CCC(=O)NC3=O)C4)CC2)C1` (centres unmarked) [P-087, 3-(7-(Difluoromethyl)-6-(1-methyl-1H-pyrazol-4-yl)-3,4-dihydroquinolin-1(2H)-yl)-1-(1-(7-(2-(2,6-dioxopiperidin-3-yl)-3-oxoisoindolin-4-yl)heptanoyl)piperidin-4-yl)-N-methyl-1,4,6,7-tetrahydro-5H-pyrazolo[4,3-c]pyridine-5-carboxamide] showed an IC50 of 12.6 nM. For the same compound, the inhibition at 0.01 µM on P300 (setting [1]) fell in the range of 20 to 50%.
With `CNC(=O)N1CCc2c(c(N3CCCc4cc(-c5cnn(CC(=O)NCCCCCNc6ccc7c(c6)C(=O)N(C6CCC(=O)NC6=O)C7=O)c5)c(C(F)F)cc43)nn2C2CCOCC2)C1` (centres unmarked) [P-019], in the assay on LNCaP cells (CellTiter-Glo (Table 2)), the half-maximal inhibitory concentration (IC50) turned out to be 14.7 nM. Besides, in the assay on LNCaP cells (from 10 μM, 12-point 3-fold serial dilution, 3 days (FIG. 4)), the “viability of LNCaP cells” value is listed as “dose-dependently suppressed viability”. For the same compound, the inhibition at 0.01 µM on P300 (setting [2]) is 50 to 80%.
In the assay with LNCaP cells (CellTiter-Glo (Table 2)), `CNC(=O)N1CCc2c(c(N3CCCc4cc(-c5cnn(CC(=O)NCCCCCCNc6cccc7c6C(=O)N(C6CCC(=O)NC6=O)C7=O)c5)c(C(F)F)cc43)nn2C2CCOCC2)C1` (centres unmarked) [P-041, 3-(7-(difluoromethyl)-6-(1-(2-((6-((2-(2,6-dioxopiperidin-3-yl)-1,3-dioxoisoindolin-4-yl)amino)hexyl)amino)-2-oxoethyl)-1H-pyrazol-4-yl)-3,4-dihydroquinolin-1(2H)-yl)-N-methyl-1-(tetrahydro-2H-pyran-4-yl)-1,4,6,7-tetrahydro-5H-pyrazolo[4,3-c]pyridine-5-carboxamide] displayed an IC50 of 10.6 nM. Moreover, on P300 (setting [2]), the inhibition at 0.01 µM was 20 to 50%.
On to `CNC(=O)N1CCc2c(c(N3CCCc4cc(-c5cnn(C)c5)c(C(F)F)cc43)nn2C2CCN(C(=O)CCCCCCc3cccc4c3CN(C3CCC(=O)NC3=O)C4=O)CC2)C1` (centres unmarked) [P-086, 3-(7-(Difluoromethyl)-6-(1-methyl-1H-pyrazol-4-yl)-3,4-dihydroquinolin-1(2H)-yl)-1-(1-(7-(2-(2,6-dioxopiperidin-3-yl)-1-oxoisoindolin-4-yl)heptanoyl)piperidin-4-yl)-N-methyl-1,4,6,7-tetrahydro-5H-pyrazolo[4,3-c]pyridine-5-carboxamide], for which the IC50 in the assay with LNCaP cells (CellTiter-Glo (Table 3)) came out at 21.1 nM. In addition, the inhibition at 0.01 µM on P300 (setting [1]) is 50 to 80%.
In turn, `CNC(=O)N1CCc2c(c(N3CCCc4cc(-c5cnn(CC(=O)NCCOCCOCCOCCNc6cccc7c6C(=O)N(C6CCC(=O)NC6=O)C7=O)c5)c(C(F)F)cc43)nn2C2CCOCC2)C1` (centres unmarked) [P-023, 3-(7-(Difluoromethyl)-6-(1-(14-((2-(2,6-dioxopiperidin-3-yl)-1,3-dioxoisoindolin-4-yl)amino)-2-oxo-6,9,12-trioxa-3-azatetradecyl)-1H-pyrazol-4-yl)-3,4-dihydroquinolin-1(2H)-yl)-N-methyl-1-(tetrahydro-2H-pyran-4-yl)-1,4,6,7-tetrahydro-5H-pyrazolo[4,3-c]pyridine-5-carboxamide] yielded an IC50 with LNCaP cells (CellTiter-Glo (Table 2)) of 357 nM. Also, the inhibition at 0.01 µM at P300 (setting [2]) was below 20%.
In the case of `CNC(=O)N1CCc2c(c(N3CCCc4cc(-c5cnn(C)c5)c(C(F)F)cc43)nn2C2CCN(CCCCCCNc3cccc4c3C(=O)N(C3CCC(=O)NC3=O)C4=O)CC2)C1` (centres unmarked) [P-090, 3-(7-(difluoromethyl)-6-(1-methyl-1H-pyrazol-4-yl)-3,4-dihydroquinolin-1(2H)-yl)-1-(1-(6-((2-(2,6-dioxopiperidin-3-yl)-1,3-dioxoisoindolin-4-yl)amino)hexyl)piperidin-4-yl)-N-methyl-1,4,6,7-tetrahydro-5H-pyrazolo[4,3-c]pyridine-5-carboxamide], in the assay on LNCaP cells (CellTiter-Glo (Table 3)), the IC50 came to 1 nM. The inhibition at 0.01 µM at P300 (setting [1]) is above 80%.
The corresponding values for `CNC(=O)N1CCc2c(c(N3CCCc4cc(-c5cnn(C)c5)c(C(F)F)cc43)nn2C2CCN(C(=O)CCCCCCC(=O)N[C@H](C(=O)N3C[C@H](O)C[C@H]3C(=O)NCc3ccc(-c4scnc4C)cc3)C(C)(C)C)CC2)C1` [P-060, 3-(7-(Difluoromethyl)-6-(1-methyl-1H-pyrazol-4-yl)-3,4-dihydroquinolin-1(2H)-yl)-1-(1-(8-(((S)-1-((2S,4R)-4-hydroxy-2-((4-(4-methylthiazol-5-yl)benzyl)carbamoyl)pyrrolidin-1-yl)-3,3-dimethyl-1-oxobutan-2-yl)amino)-8-oxooctanoyl)piperidin-4-yl)-N-methyl-1,4,6,7-tetrahydro-5H-pyrazolo[4,3-c]pyridine-5-carboxamide] are 59.1 nM and below 20%.
For `CC(=O)N1CCc2c(c(N3CCCc4cc(-c5cnn(C)c5)c(C(F)F)cc43)nn2C2CCN(Cc3ccc(COc4cccc5c4CN(C4CCC(=O)NC4=O)C5=O)cc3)CC2)C1` (centres unmarked) [P-166, 3-(4-((4-((4-(5-acetyl-3-(7-(difluoromethyl)-6-(1-methyl-1H-pyrazol-4-yl)-3,4-dihydroquinolin-1(2H)-yl)-4,5,6,7-tetrahydro-1H-pyrazolo[4,3-c]pyridin-1-yl)piperidin-1-yl)methyl)benzyl)oxy)-1-oxoisoindolin-2-yl)piperidine-2,6-dione] the same measures were 0.3 nM and above 80%.
The corresponding values for `CNC(=O)N1CCc2c(c(N3CCCc4cc(-c5cnn(C)c5)c(C(F)F)cc43)nn2C2CCN(C(=O)CCOCCOCCOCCOCCNc3cccc4c3C(=O)N(C3CCC(=O)NC3=O)C4=O)CC2)C1` (centres unmarked) [P-054, 3-(7-(Difluoromethyl)-6-(1-methyl-1H-pyrazol-4-yl)-3,4-dihydroquinolin-1(2H)-yl)-1-(1-(1-((2-(2,6-dioxopiperidin-3-yl)-1,3-dioxoisoindolin-4-yl)amino)-3,6,9,12-tetraoxapentadecan-15-oyl)piperidin-4-yl)-N-methyl-1,4,6,7-tetrahydro-5H-pyrazolo[4,3-c]pyridine-5-carboxamide] are 122 nM and below 20%.
`CC(=O)N1CCc2c(c(N3CCCc4cc(-c5cnn(C)c5)c(C(F)F)cc43)nn2C2CCN(CCCNC(=O)CNc3cccc4c3C(=O)N(C3CCC(=O)NC3=O)C4=O)CC2)C1` (centres unmarked) [P-124, N-(3-(4-(5-Acetyl-3-(7-(difluoromethyl)-6-(1-methyl-1H-pyrazol-4-yl)-3,4-dihydroquinolin-1(2H)-yl)-4,5,6,7-tetrahydro-1H-pyrazolo[4,3-c]pyridin-1-yl)piperidin-1-yl)propyl)-2-((2-(2,6-dioxopiperidin-3-yl)-1,3-dioxoisoindolin-4-yl)amino)acetamide] displayed a concentration for half-maximal inhibition (IC50) in the assay with LNCaP cells (CellTiter-Glo (Table 3)) above 10000 nM. In addition, the inhibition at 0.01 µM on P300 (setting [1]) was below 20%.
In the assay on LNCaP cells (CellTiter-Glo (Table 2)), `CNC(=O)N1CCc2c(c(N3CCCc4cc(-c5cnn(CC(=O)NCCCCCCCCNc6cccc7c6C(=O)N(C6CCC(=O)NC6=O)C7=O)c5)c(C(F)F)cc43)nn2C2CCOCC2)C1` (centres unmarked) [P-043, 3-(7-(difluoromethyl)-6-(1-(2-((8-((2-(2,6-dioxopiperidin-3-yl)-1,3-dioxoisoindolin-4-yl)amino)octyl)amino)-2-oxoethyl)-1H-pyrazol-4-yl)-3,4-dihydroquinolin-1(2H)-yl)-N-methyl-1-(tetrahydro-2H-pyran-4-yl)-1,4,6,7-tetrahydro-5H-pyrazolo[4,3-c]pyridine-5-carboxamide] gave a concentration for half-maximal inhibition (IC50) of 15.4 nM. For the same compound, the inhibition at 0.01 µM on P300 (setting [2]) fell in the range of 20 to 50%.
On to `CC(=O)N1CCc2c(c(N3CCCc4cc(-c5cnn(C)c5)c(C(F)F)cc43)nn2C2CCN(C(=O)CCCCCCCn3c(=O)n(C4CCC(=O)NC4=O)c4ccccc43)CC2)C1` (centres unmarked) [P-135, 3-(3-(8-(4-(5-acetyl-3-(7-(difluoromethyl)-6-(1-methyl-1H-pyrazol-4-yl)-3,4-dihydroquinolin-1(2H)-yl)-4,5,6,7-tetrahydro-1H-pyrazolo[4,3-c]pyridin-1-yl)piperidin-1-yl)-8-oxooctyl)-2-oxo-2,3-dihydro-1H-benzo[d]imidazol-1-yl)piperidine-2,6-dione], for which the midpoint of inhibition in the assay with LNCaP cells (CellTiter-Glo (Table 3)), the IC50, lay at 0.7 nM. Besides, on P300, the inhibition at 0.01 µM was above 80%.
`CNC(=O)N1CCc2c(c(N3CCCc4cc(-c5cnn(C)c5)c(C(F)F)cc43)nn2C2CCN(C(=O)COCCOCC(=O)N[C@H](C(=O)N3C[C@H](O)C[C@H]3C(=O)NCc3ccc(-c4scnc4C)cc3)C(C)(C)C)CC2)C1` [P-066, 3-(7-(Difluoromethyl)-6-(1-methyl-1H-pyrazol-4-yl)-3,4-dihydroquinolin-1(2H)-yl)-1-(1-(2-(2-(2-(((S)-1-((2S,4R)-4-hydroxy-2-((4-(4-methylthiazol-5-yl)benzyl)carbamoyl)pyrrolidin-1-yl)-3,3-dimethyl-1-oxobutan-2-yl)amino)-2-oxoethoxy)ethoxy)acetyl)piperidin-4-yl)-N-methyl-1,4,6,7-tetrahydro-5H-pyrazolo[4,3-c]pyridine-5-carboxamide] showed a half-inhibitory concentration (IC50) in the assay on LNCaP cells (CellTiter-Glo (Table 3)) of 135 nM. Besides, the inhibition at 0.01 µM at P300 (setting [1]) is below 20%.
In turn, `CNC(=O)N1CCc2c(c(N3CCCc4cc(-c5cnn(C)c5)c(C(F)F)cc43)nn2C2CCN(C(=O)CCCCNc3cccc4c3C(=O)N(C3CCC(=O)NC3=O)C4=O)CC2)C1` (centres unmarked) [P-033, 3-(7-(difluoromethyl)-6-(1-methyl-1H-pyrazol-4-yl)-3,4-dihydroquinolin-1(2H)-yl)-1-(1-(5-((2-(2,6-dioxopiperidin-3-yl)-1,3-dioxoisoindolin-4-yl)amino)pentanoyl)piperidin-4-yl)-N-methyl-1,4,6,7-tetrahydro-5H-pyrazolo[4,3-c]pyridine-5-carboxamide] displayed an IC50 in the assay on LNCaP cells (CellTiter-Glo (Table 2)) of 4.8 nM. In addition, at P300 (setting [2]), the inhibition at 0.01 µM was above 80%.
